Experimental data published in patent US9029092B2, “Solution phase homogeneous assays” (Beckman Coulter, Inc., priority 2009, dated 2015).

Tested on: biotinylated HRP
Assay: Model system for selection of SSIA (AK1/streptavidin BSA microparticles + biotinylated HRP)
Assay type: biochemical, horseradish
Conditions: SSIA 100 μM final; for light intensity, BTN-HRP0: Btn-HRP 0 ng/mL; for light intensity, BTN-HRP0 / light intensity, BTN-HRP1 / light intensity, BTN-HRP10 / light intensity, BTN-HRP100 / light intensity, BTN-HRP250: total HRP 500 ng/mL; for S1/S0: Btn-HRP 1 ng/mL vs 0; for light intensity, BTN-HRP1: Btn-HRP 1 ng/mL; for S2/S0: Btn-HRP 10 ng/mL vs 0; for light intensity, BTN-HRP10: Btn-HRP 10 ng/mL; for S3/S0: Btn-HRP 100 ng/mL vs 0; for light intensity, BTN-HRP100: Btn-HRP 100 ng/mL; for S4/S0: Btn-HRP 250 ng/mL vs 0; for light intensity, BTN-HRP250: Btn-HRP 250 ng/mL
Procedure: The model system uses a microparticle conjugated to BSA (bovine serum albumin) labeled with a […] and acridan ketenedithioacetal chemiluminescent label (AK1) as the chemiluminescent-labeled sbp, and biotinylated HRP as the activator-labeled specific binding pair. In the model system, varying amounts of Btn-HRP is added to the chemiluminescent-labeled specific binding pair at 0, 1, 10, 100 and 250 ng/mL. Additional unlabeled HRP is added to reach a total HRP of concentration of 500 ng/mL in each reaction mixture. The unlabeled HRP in combination with the activator-labeled sbp was provided to the chemiluminescent-labeled sbp microparticles to emulate sample. A compound for assessment as an SSIA was also added. This reaction mixture of the model system is then triggered by addition of trigger solution in a manner of assays of the present disclosure.
To prepare the chemiluminescent-labeled sbp on microparticles, Bovine Serum Albumin (BSA) was biotinylated with 4× molar excess of biotin-LC-sulfoNHS (Pierce Biotechnology Inc., Rockford, Ill., USA). Unbound reactants were removed via desalting or dialysis. The biotin-BSA was then reacted with a 5× molar excess of an NHS ester of acridan ketenedithioacetal AK1 in 20 mM sodium phosphate pH 7.2: DMSO 75:25, v/v) followed by desalting in the same buffer. The dual labeled (biotin and AK1) BSA was then coupled with tosyl activated M280 microparticles (Invitrogen Corporation, Carlsbad, Calif., USA) in a 0.1M borate buffer pH 9.5 at a concentration of about 20 μg of labeled BSA per mg of microparticles for 16-24 h at 40° C. After coupling the microparticles were stripped for 1 h at 40° C. with 0.2 M TRIS base, 2% SDS, pH˜11. The stripping process was repeated one additional time. Microparticles were then suspended in a 0.1% BSA/TRIS buffered saline (BSA/TBS) buffer and streptavidin (SA) was added at approximately 15 μg SA per mg microparticles. Streptavidin was mixed with the microparticles for 45-50 min at room temperature. The microparticles were then washed three times and suspended in the same BSA/TBS.
HRP, (Roche Diagnostics, Indianapolis, Ind., USA) was biotinylated with 4× molar excess of biotin-LC-sulfoNHS (Pierce Biotechnology Inc., Rockford, Ill., USA). Alternatively, 25× molar excess of biotin-PEO4-NHS may be used. Unbound reactants were removed via desalting or dialysis.
Each SSIA compound for assessment was solubilized in Buffer II at a concentration at least 10× of the working strength concentration.
25 μl of 1 mg/ml of dual-labeled (biotin and AK1) BSA M280 particles were mixed with 45 μl of working concentration SSIA in Buffer II. The assay volume brought to 85 μl by adding 15 μl of Buffer II. 15 μl of sample containing Btn-HRP:HRP at different ratios (The amount of biotinylated-HRP varied from 0, 1, 10, 100 and 250 ng/mL) was added. The reaction mixture was incubated for 30 min at 37° C., then 100 μL of trigger solution was added and the light intensity recorded. Total volume of reaction mixture, including trigger solution was 200 μL with a final concentration of 100 μM of SSIA.
The screening tests were performed using a modified DxI® Immunoassay System (Beckman Coulter, Inc. Brea, Calif.) as described above.

Compound | light intensity, BTN-HRP0 | S1/S0 | light intensity, BTN-HRP1 | S2/S0 | light intensity, BTN-HRP10 | S3/S0 | light intensity, BTN-HRP100 | S4/S0 | light intensity, BTN-HRP250 | effectiveness as SSIA in the model system
CC1(C)OC[C@@H]([C@H]2OC(=O)C(O)=C2O)O1 [5,6iso-propyliene ascorbic acid] | 264 | 3.6 | 961 | 112.3 | 29,645 | 18626.9 | 4,917,499 | 33275 | 8,784,595 | demonstrating utility as SSIA
O=C(O)CCCC[C@@H]1CCSS1 (racemic) [Lipoic Acid] | 35,016 | 2 | 71,751 | 70.0 | 2,450,949 | 246.9 | 8,647,037 | 252.7 | 8,847,921 | insuffient effectiveness
O=C(O)c1cccnc1 [Nicotinic Acid] | 34,369 |  | 53,765 |  | 2,228,317 |  | 8,772,523 |  | 9,224,439 | insuffient effectiveness
CC1(C)CC(O)CC(C)(C)N1[O] [TEMPOL] | 22,621 | 1.5 | 33,873 | 86.8 | 1,963,369 | 407.6 | 9,220,799 | 467.6 | 10,578,104 | insuffient effectiveness
Oc1ccc(O)c(Cl)c1 [2-chloro-1,4-dihydroxybenzene] | 3,571 | 1.1 | 4,007 | 52.9 | 188,920 | 170.8 | 610,053 | 245.3 | 875,831 | 
COc1ccc2[nH]cc(CCNC(C)=O)c2c1 [Melatonin] | 54,528 | 1.3 | 70,741 | 43.7 | 2,381,361 | 173.7 | 9,471,431 | 190.2 | 10,370,061 | insuffient effectiveness
Nc1ccc(C(=O)O)cc1O [4-Amino-3-hydroxy-benzoic acid] | 972 | 2.9 | 2,808 | 454.2 | 441,455 | 6076.7 | 5,906,521 | 6587.9 | 6,403,425 | demonstrating utility as SSIA
CCCCCCCCCCCCCCCC(=O)OC[C@H](O)[C@H]1OC(=O)C(O)=C1O [Ascorbic Acid 6-palmitate] | 81 | 4 | 327 | 502.4 | 40,863 | 100662.3 | 8,187,204 | 125193.6 | 10,182,411 | demonstrating utility as SSIA
NNC(=O)c1cccnc1 [Nicotinic Hydrazide] | 42,260 | 1.4 | 58,356 | 49.8 | 2,106,471 | 194.2 | 8,205,320 | 187.5 | 7,923,092 | insuffient effectiveness
COc1cc(/C=C/C(=O)O)ccc1O [Ferulic acid] | 5,252 | 2.3 | 12,079 | 136.2 | 715,313 | 1672.9 | 8,785,865 | 1950.5 | 10,244,269 | 
COc1cc(C(=O)O)cc(OC)c1O [Syringic Acid] | 14,485 | 1.6 | 23,707 | 64.8 | 939,372 | 547.2 | 7,927,096 | 658 | 9,530,979 | 
Cc1c(O)cc2c(c1C)O[C@](C)(CCC[C@H](C)CCC[C@H](C)CCCC(C)C)CC2 [(+)-gamma-Tocopherol] | 6,051 | 1.8 | 10,924 | 278.7 | 1,686,079 | 1437.5 | 8,698,069 | 1699.4 | 10,282,504 | 
Oc1ccc(Cl)cc1O [4-chloro catechol, 4-chlorocatechol] | 93 | 2.2 | 205 | 14.8 | 1,373 | 4910.8 | 456,707 | 13558.5 | 1,260,937 | demonstrating utility as SSIA
Cl.Nc1ccc(O)cc1O [4-aminoresorcinol hydrochloride] | 675 | 1.7 | 1,163 | 110.8 | 74,764 | 489.0 | 330,056 | 384.5 | 259,541 | 
O=c1[nH]c(=O)c2[nH]c(=O)[nH]c2[nH]1 [Uric Acid] | 5,532 | 1.8 | 9,760 | 185.3 | 1,025,209 | 1574.9 | 8,712,328 | 1935.8 | 10,708,733 | 
Oc1ccc(C=Cc2cc(O)cc(O)c2)cc1 [Resveratrol] | 64,051 | 1.3 | 81,452 | 16.8 | 1,073,968 | 92.8 | 5,944,792 | 102.4 |  | insuffient effectiveness
(+/−)-alpha-Tocopherol | 2,772 | 2.3 | 6,468 | 452.1 | 1,253,187 | 3088.2 | 8,560,469 | 3473.4 | 9,628,184 | 
CC(=O)N[C@@H](CS)C(=O)O [N-Ac-Cysteine, N-acetyl cysteine] | 43,647 | 1.1 | 47,636 | 40.3 | 1,757,607 | 199 | 8,685,795 | 234.2 | 10,219,869 | insuffient effectiveness
